Measurements from ChEMBL document CHEMBL1909046, “DrugMatrix in vitro pharmacology data”.

What was measured:
[1] = DRUGMATRIX: Glutamate, NMDA, Phencyclidine radioligand binding (ligand: [3H] TCP); assay type: cell membranes, Rattus norvegicus, Wistar, Cerebral cortex, Membrane; conditions: Not Active = under 50% inhibition at 10 µM
[2] = DRUGMATRIX: Leukotriene, BLT (LTB4) radioligand binding (ligand: [3H]LTB4); assay type: cell membranes, Membrane; conditions: u-937; Not Active = under 50% inhibition at 10 µM
Melanocortin receptor 3 = Melanocortin receptor 3 (Homo sapiens, UniProt P41968); assay type: cell membranes, Membrane; conditions: hek293; also: in other assays of this panel Not Active means under 50% inhibition at 10 µM
[3] = DRUGMATRIX: GABAA, Muscimol, Central radioligand binding (ligand: [3H] Muscimol); assay type: cell membranes, Rattus norvegicus, Wistar, Brain, Membrane; conditions: Not Active = under 50% inhibition at 10 µM
[4] = DRUGMATRIX: Phosphodiesterase PDE4 enzyme inhibition (substrate: [3H]cAMP + cAMP); conditions: u-937; Not Active = under 50% inhibition at 10 µM
Adenosine receptor A2a = Adenosine receptor A2a (Homo sapiens, UniProt P29274); experiment: DRUGMATRIX: Adenosine A2A radioligand binding (ligand: […]); assay type: cell membranes, HEK293, Membrane; conditions: Not Active = under 50% inhibition at 10 µM
[5] = target: T1, Angiotensin-converting enzyme (Oryctolagus cuniculus, UniProt P12822); assay type: tissue-based, Lung;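 also: enzymatic inhibition of angiotensin-converting enzyme measured with FAPGG as the substrate; in other assays of this panel Not Active means under 50% inhibition at 10 µM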
T1 sequence (P12822 whole entry): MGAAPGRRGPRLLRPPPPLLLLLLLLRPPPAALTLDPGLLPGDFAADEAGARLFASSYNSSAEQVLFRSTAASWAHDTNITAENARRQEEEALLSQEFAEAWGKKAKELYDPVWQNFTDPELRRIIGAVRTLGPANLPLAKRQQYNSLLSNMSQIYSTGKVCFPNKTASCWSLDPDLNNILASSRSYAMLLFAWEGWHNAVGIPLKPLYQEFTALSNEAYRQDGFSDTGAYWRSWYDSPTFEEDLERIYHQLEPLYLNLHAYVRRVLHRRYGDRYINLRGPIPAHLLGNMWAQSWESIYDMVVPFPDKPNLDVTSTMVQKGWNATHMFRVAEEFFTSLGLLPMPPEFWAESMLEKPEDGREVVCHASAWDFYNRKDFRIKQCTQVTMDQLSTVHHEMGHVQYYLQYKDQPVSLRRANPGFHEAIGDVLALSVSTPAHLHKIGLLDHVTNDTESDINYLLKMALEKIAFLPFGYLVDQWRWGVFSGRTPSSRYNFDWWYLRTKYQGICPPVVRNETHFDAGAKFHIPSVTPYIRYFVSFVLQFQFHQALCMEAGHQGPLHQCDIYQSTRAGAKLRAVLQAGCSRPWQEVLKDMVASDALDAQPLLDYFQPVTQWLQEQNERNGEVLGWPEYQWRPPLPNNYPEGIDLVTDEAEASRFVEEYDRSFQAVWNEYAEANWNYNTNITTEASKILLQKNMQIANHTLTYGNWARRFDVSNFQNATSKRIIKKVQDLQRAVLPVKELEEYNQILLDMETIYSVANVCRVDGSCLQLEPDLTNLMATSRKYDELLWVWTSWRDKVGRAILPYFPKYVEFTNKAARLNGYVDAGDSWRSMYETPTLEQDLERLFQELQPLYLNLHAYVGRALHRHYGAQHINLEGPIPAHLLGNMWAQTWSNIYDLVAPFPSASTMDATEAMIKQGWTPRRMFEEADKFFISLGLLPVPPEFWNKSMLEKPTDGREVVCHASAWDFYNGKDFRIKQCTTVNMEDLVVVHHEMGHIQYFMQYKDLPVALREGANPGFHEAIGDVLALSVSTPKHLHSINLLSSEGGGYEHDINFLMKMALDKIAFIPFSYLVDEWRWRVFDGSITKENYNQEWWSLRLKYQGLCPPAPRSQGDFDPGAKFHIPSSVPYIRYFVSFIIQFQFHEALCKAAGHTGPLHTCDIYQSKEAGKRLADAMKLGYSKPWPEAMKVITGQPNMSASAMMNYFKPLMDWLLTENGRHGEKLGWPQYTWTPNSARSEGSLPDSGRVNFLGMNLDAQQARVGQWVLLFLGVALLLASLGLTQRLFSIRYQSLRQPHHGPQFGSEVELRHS

[6] = target: Delta-type opioid receptor (Homo sapiens, UniProt P41143); assay type: cell membranes, HEK293, Membrane; conditions: hek293; also: in other assays of this panel Not Active means under 50% inhibition at 10 µM
Delta-type opioid receptor, sequence (P41143 whole entry): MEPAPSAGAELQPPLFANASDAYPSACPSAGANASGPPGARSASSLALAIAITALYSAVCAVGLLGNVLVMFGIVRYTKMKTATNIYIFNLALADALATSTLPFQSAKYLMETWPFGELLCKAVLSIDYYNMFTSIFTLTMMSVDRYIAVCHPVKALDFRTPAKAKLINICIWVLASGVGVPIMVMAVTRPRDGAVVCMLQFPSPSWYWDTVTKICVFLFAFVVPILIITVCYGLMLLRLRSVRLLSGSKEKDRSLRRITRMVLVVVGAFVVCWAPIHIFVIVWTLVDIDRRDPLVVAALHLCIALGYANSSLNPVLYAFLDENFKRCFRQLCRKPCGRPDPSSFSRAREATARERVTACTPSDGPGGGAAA

Adenosine receptor A2a, sequence (P29274 whole entry): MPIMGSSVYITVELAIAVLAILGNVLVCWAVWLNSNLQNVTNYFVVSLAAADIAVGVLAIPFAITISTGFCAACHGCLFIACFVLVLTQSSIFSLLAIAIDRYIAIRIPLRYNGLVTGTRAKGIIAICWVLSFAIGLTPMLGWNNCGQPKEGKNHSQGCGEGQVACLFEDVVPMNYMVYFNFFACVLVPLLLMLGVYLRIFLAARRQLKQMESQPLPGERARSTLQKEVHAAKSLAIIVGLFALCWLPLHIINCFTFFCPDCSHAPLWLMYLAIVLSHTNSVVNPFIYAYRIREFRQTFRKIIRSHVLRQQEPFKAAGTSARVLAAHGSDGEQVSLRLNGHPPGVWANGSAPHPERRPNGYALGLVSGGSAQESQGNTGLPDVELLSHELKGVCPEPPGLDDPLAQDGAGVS
Melanocortin receptor 3, sequence (P41968 whole entry): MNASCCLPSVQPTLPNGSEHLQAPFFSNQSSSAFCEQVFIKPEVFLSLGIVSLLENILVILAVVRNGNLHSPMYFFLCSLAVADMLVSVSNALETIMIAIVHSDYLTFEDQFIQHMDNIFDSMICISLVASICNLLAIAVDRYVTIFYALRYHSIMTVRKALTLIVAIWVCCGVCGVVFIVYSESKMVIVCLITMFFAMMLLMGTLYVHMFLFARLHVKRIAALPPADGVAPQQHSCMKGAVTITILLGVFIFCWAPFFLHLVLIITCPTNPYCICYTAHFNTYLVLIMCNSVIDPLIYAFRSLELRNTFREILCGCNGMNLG

| SMILES | IC50 [1] | Ki [1] | IC50 [2] | Ki [2] | IC50 (Melanocortin receptor 3) | IC50 [3] | Ki [3] | IC50 [4] | Ki [4] | IC50 (Adenosine receptor A2a; hek293) | IC50 [5] | IC50 [6] | IC50 (Adenosine receptor A2a; read-out: IC50) [nM] | Ki (Adenosine receptor A2a; read-out: Ki) [nM] |
| --- | --- | --- | --- | --- | --- | --- | --- | --- | --- | --- | --- | --- | --- | --- |
| Cc1ncc([N+](=O)[O-])n1CCO [METRONIDAZOLE] | Not Active | Not Active | Not Active | Not Active | Not Active | Not Active | Not Active | Not Active | Not Active | Not Active | Not Active | Not Active |  |  |
| OC(CCN1CCCCC1)(c1ccccc1)C1CCCCC1 (configuration not stated) [TRIHEXYPHENIDYL] | Not Active | Not Active | Not Active | Not Active | Not Active | Not Active | Not Active | Not Active | Not Active | Not Active | Not Active | Not Active |  |  |
| O=C(C1CCCCC1)N1CC(=O)N2CCc3ccccc3C2C1 (configuration not stated) [PRAZIQUANTEL] | Not Active | Not Active | Not Active | Not Active | Not Active | Not Active | Not Active | Not Active | Not Active | Not Active | Not Active | Not Active |  |  |
| C=C1CC[C@H](O)C/C1=C/C=C1\CCC[C@]2(C)[C@@H]([C@H](C)CCCC(C)C)CC[C@@H]12 [CHOLECALCIFEROL] | Not Active | Not Active | Not Active | Not Active | Not Active | Not Active | Not Active | Not Active | Not Active | Not Active | Not Active | Not Active |  |  |
| CC(=O)OCC(=O)[C@@]1(O)CC[C@H]2[C@@H]3CCC4=CC(=O)CC[C@]4(C)[C@H]3C(=O)C[C@@]21C [CORTISONE ACETATE] | Not Active | Not Active | Not Active | Not Active | Not Active | Not Active | Not Active | Not Active | Not Active | Not Active | Not Active | Not Active |  |  |
| COc1ccc2[nH]c([S+]([O-])Cc3ncc(C)c(OC)c3C)nc2c1 (configuration not stated) [OMEPRAZOLE] | Not Active | Not Active | Not Active | Not Active | Not Active | Not Active | Not Active | Not Active | Not Active | Not Active | Not Active | Not Active |  |  |
| C[C@@]12C(=O)OC(=O)[C@]1(C)[C@H]1CC[C@@H]2O1 [CANTHARIDIN] | Not Active | Not Active | Not Active | Not Active | Not Active | Not Active | Not Active | Not Active | Not Active | Not Active | Not Active | Not Active |  |  |
| Nc1c(CC(=O)O)cccc1C(=O)c1ccc(Br)cc1 [BROMFENAC] | Not Active | Not Active | Not Active | Not Active | Not Active | Not Active | Not Active | Not Active | Not Active | Not Active | Not Active | Not Active |  |  |
| C[C@H]1O[C@@H](O[C@H]2[C@@H](O)C[C@H](O[C@H]3[C@@H](O)C[C@H](O[C@H]4CC[C@@]5(C)[C@H](CC[C@@H]6[C@@H]5CC[C@]5(C)[C@@H](C7=CC(=O)OC7)CC[C@]65O)C4)O[C@@H]3C)O[C@@H]2C)C[C@H](O)[C@@H]1O [DIGITOXIN] | Not Active | Not Active | Not Active | Not Active | Not Active | Not Active | Not Active | Not Active | Not Active | Not Active | Not Active | Not Active |  |  |
| C[N+](C)(C)CCO.[Cl-] [CHOLINE CHLORIDE] | Not Active | Not Active | Not Active | Not Active | Not Active | Not Active | Not Active | Not Active | Not Active | Not Active | Not Active | Not Active |  |  |
| CN(C)c1ccc(C(=C2C=CC(=[N+](C)C)C=C2)c2ccc(N(C)C)cc2)cc1.[Cl-] [GENTIAN VIOLET] | Not Active | Not Active | Not Active | Not Active | Not Active | Not Active | Not Active | Not Active | Not Active |  | Not Active | Not Active | 3370 | 1890 |
| O=S(=O)([O-])CCS.[Na+] [MESNA] | Not Active | Not Active | Not Active | Not Active | Not Active | Not Active | Not Active | Not Active | Not Active | Not Active | Not Active | Not Active |  |  |
| O=C(O)Cc1ccccc1Nc1c(Cl)cccc1Cl [DICLOFENAC] | Not Active | Not Active | Not Active | Not Active | Not Active | Not Active | Not Active | Not Active | Not Active | Not Active | Not Active | Not Active |  |  |
| COc1ccccc1C(=O)N1CCC(Cc2ccccc2)CC1 | Not Active | Not Active | Not Active | Not Active | Not Active | Not Active | Not Active | Not Active | Not Active | Not Active | Not Active | Not Active |  |  |
| CCC1=C[C@@H]2CN(C1)Cc1c([nH]c3ccccc13)[C@@](C(=O)OC)(c1cc3c(cc1OC)N(C)[C@H]1[C@@](O)(C(=O)OC)[C@H](OC(C)=O)[C@]4(CC)C=CCN5CC[C@]31[C@@H]54)C2 [VINORELBINE] | Not Active | Not Active | Not Active | Not Active | Not Active | Not Active | Not Active | Not Active | Not Active | Not Active | Not Active | Not Active |  |  |
| CCOC(=O)[C@H](CCc1ccccc1)N[C@H]1CCc2ccccc2N(CC(=O)O)C1=O [BENAZEPRIL] | Not Active | Not Active | Not Active | Not Active | Not Active | Not Active | Not Active | Not Active | Not Active | Not Active | Not Active | Not Active |  |  |
| CCOC(=O)C(C)(C)Oc1ccc(Cl)cc1 [CLOFIBRATE] | Not Active | Not Active | Not Active | Not Active | Not Active | Not Active | Not Active | Not Active | Not Active | Not Active | Not Active | Not Active |  |  |
| CC(=O)Nc1c(I)c(NC(C)=O)c(I)c(C(=O)O)c1I [DIATRIZOIC ACID] | Not Active | Not Active | Not Active | Not Active | Not Active | Not Active | Not Active | Not Active | Not Active | Not Active | Not Active | Not Active |  |  |
